Patent publication US20080200441A1, “ESTROGEN RECEPTOR MODULATORS ASSOCIATED PHARMACEUTICAL COMPOSITIONS AND METHODS OF USE” (University of Southern California, priority 2007, published 2008)

Tests used:
MCF-7 cells = experiment: MCF-7 cell proliferation, MTT; type: cell-based, human; conditions: 3 days, serially diluted concentrations, MTT at 570 nm
[1] = system: rat primary hippocampal neurons; experiment: Intracellular calcium imaging in hippocampal neurons; type: cell-based
Procedure: The [Ca^2+]i in hippocampal neurons was measured by ratiometric Ca^2+ imaging with the Ca^2+-sensitive fluorescent dye fura-2. Prior to imaging, hippocampal neurons were loaded with 2 μM fura-2 acetoxymethyl ester (fura-2 AM, Molecular Probes, Inc., Eugene, Oreg.) for 30-45 min at 37° C. in HEPES-Buffered Solution (HBS), containing (in mM): 100 NaCl, 2.0 KCl, 1.0 CaCl2, 1.0 MgCl2, 1.0 NaH2PO4, 4.2 NaHCO3, 12.5 HEPES and 10.0 glucose. Excess fura-2 AM dye was removed by washing with HBS and then the neurons were incubated in HBS for 30 min at 37° C. to equilibrate. The coverslip with fura-2 AM-loaded neurons was removed and attached to the coverslip clamp chamber MS-502S (ALA Scientific Instruments, Westbury, N.Y.) for the Ca^2+ imaging analysis. Neurons were placed on the stage of an inverted microscope (MT-2, Olympus) equipped with epifluorescence optics (20× Nikon), The perfusion solution is HBS and the perfusion system connected to the perfusion chamber was balanced using two variable speed pumps. Imaging was performed at room temperature. Neurons were perfused at a flow rate of 2 ml/min. Fura-2 was excited by a xenon light source at 340 and 380 nm. The emitted fluorescence was filtered through a 520 nm filter, captured with an intensified CCD camera (COHU) and analyzed with InCyt Im2 software (Intracellular Imaging, Cincinnati, Ohio). The concentration of Ca^2+ was calculated by comparing the ratio of fluorescence at 340 and 380 nm against a standard curve of known [Ca^2+].

[2] = system: rat primary hippocampal neurons; conditions: previous reports; cited from earlier work
Bcl-2 [3] = conditions: previously observed; cited from earlier work
Bcl-XL = conditions: previously observed; cited from earlier work
spinophilin = conditions: primary neurons, earlier findings; cited from earlier work
Bcl-2 [4] = experiment: Bcl-2 expression, Western immunoblotting; conditions: primary hippocampal neurons
ERK2 = experiment: ERK phosphorylation, Western immunoblotting; conditions: primary hippocampal neurons

C[C@]12CCC3c4ccc(O)cc4CC(CCCCCCCCC[S+]([O-])CCCC(F)(F)C(F)(F)F)C3C1CC[C@@H]2O (stereo partly shown) [ICI 182,780]
MCF-7 cell proliferation (MCF-7 cells): promoted MCF-7 cell proliferation in a concentration dependent manner | intracellular calcium rise ([1]; compound alone): directly induce intracellular calcium rise | physiological glutamate-induced rise in calcium ion concentration ([1]; physiological glutamate): potentiates the physiological glutamate-induced rise in calcium ion concentration | excitotoxic glutamate-induced rise in intracellular calcium ([1]; pretreated neurons, excitotoxic glutamate): attenuation of the glutamate-induced rise in intracellular calcium | concentration of maximal neuroprotection [2]: 10 nM | Bcl-2 expression (Bcl-2 [3]): Upregulation | Bcl-XL expression (Bcl-XL): Upregulation | spinophilin expression (spinophilin): comparably effective to 17β-estradiol in upregulating spinophilin expression | expression of antiapoptotic protein Bcl-2 (Bcl-2 [4]): potentiate the expression of antiapoptotic protein Bcl-2 | phosphorylation of ERK (ERK2): activate the phosphorylation of ERK
